The record followed here is patent US11058678B2 (Enanta Pharmaceuticals, Inc., priority 2018, dated 2021).

Data set [1] can be described thus: Compound induced cellular toxicity in HepG2 cells (ATPlite 1 Step). Type of data set: cell-based. To be noted: human, three days, 50% reduction of total ATP levels vs no drug controls. Here is the method: At day 3, post seeding cells are treated with ATPlite 1 Step according to the manufacturer's instructions.
Background: In ATP-based viability assays light output follows the ATP content of the culture.

A further data set has as its system HBV (2.2.15 cells). As to the kind of experiment: Antiviral activity in 2.2.15 cells: reduction of viral product accumulation (qPCR of lysates, HBsAg or HBeAg ELISA). To be noted: Hepatitis B virus, 120 h, day 5 post treatment, 50% reduction of viral product accumulation in lysates or supernatants vs no drug controls, readout (qPCR, HBsAg, HBeAg) not specified. Type of data set: cell-based, hepatitis B virus (HBV). The method in brief: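 HBV-producing 2.2.15 cells, 35,000/well, treated with 5-fold serial compound dilutions at 0.5% final DMSO for 5 days. Lysate HBV DNA by qPCR or supernatant HBsAg/HBeAg by ELISA; EC50 is 50% reduction versus no-drug control, binned A<0.1 μM, B 0.1-1 μM, C>1 μM.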
In general terms: Real-time PCR tracks product formation cycle by cycle.

What is called CC50 is the concentration that lowers cell viability or growth by half. Read a low CC50 as harm at low concentration. In general, EC50 refers to the midpoint of the concentration-response curve.

In data set [1], `COc1cccc(-c2cc3c(c4c2OCC4)C[C@@H](C(C)(C)C)n2cc(C(=O)O)c(=O)cc2-3)c1` [Example 79, (S)-5-(tert-butyl)-12-(3-methoxyphenyl)-9-oxo-2,3,4,9-tetrahydro-5H-furo[3,2-f]pyrido[2,1-a]isoquinoline-8-carboxylic Acid] had a CC50 at 3 days below 10 µM. The EC50 in the data set on HBV (2.2.15 cells) was below 0.1 µM.
On to `CC(C)(C)[C@@H]1Cc2c(cc(-c3cccs3)c3c2CCO3)-c2cc(=O)c(C(=O)O)cn21` [Example 86, (S)-5-(tert-butyl)-9-oxo-12-(thiophen-2-yl)-2,3,4,9-tetrahydro-5H-furo[3,2-f]pyrido[2,1-a]isoquinoline-8-carboxylic Acid], for which, in data set [1], the CC50 at 3 days is below 10 µM. This compound also displayed a concentration giving a half-maximal response (EC50) in the data set with HBV (2.2.15 cells) below 0.1 µM.
`CC(C)[C@@H]1Cc2c(cc(-c3ccsc3)c3c2CCO3)-c2cc(=O)c(C(=O)O)cn21` [Example 100, (S)-5-isopropyl-9-oxo-12-(thiophen-3-yl)-2,3,4,9-tetrahydro-5H-furo[3,2-f]pyrido[2,1-a]isoquinoline-8-carboxylic Acid] displayed a CC50 at 3 days in data set [1] below 10 µM. This compound also came in with an EC50 in the data set on HBV (2.2.15 cells) below 0.1 µM.
The like results for `C[C@H]1Cc2c3c(cc(-c4ccoc4)c2O1)-c1cc(=O)c(C(=O)O)cn1[C@H](C(C)(C)C)C3` [Example 132, (2S,5S)-5-(tert-butyl)-12-(furan-3-yl)-2-methyl-9-oxo-2,3,4,9-tetrahydro-5H-furo[3,2-f]pyrido[2,1-a]isoquinoline-8-carboxylic Acid] were, in that order, below 10 µM and below 0.1 µM.
